Numbers after ± are expanded uncertainties.
Legend:
[1] = Molar enthalpy of transition or fusion; conditions: Crystal; DSC
[2] = Crystal; DTA

For `O=C(O)C=Cc1ccc(O)cc1` [3-(4-hydroxyphenyl)-2-propenoic acid], the “Molar enthalpy of transition or fusion” value [1] was 6.55 ± 0.956 kcal/mol and the Normal melting temperature [2] was 219.20 ± 1 °C.
